Measured values reported in PubChem BioAssay AID330 (DTP/NCI, 2004).
“And” between values parts separate entries of the source, which are not always exact repeats. Equal values may be shown once. Toxic doses and inconclusive results are not listed. The calls were made as follows: active = survival T/C of 150% or more; inactive = T/C below 125% in these data. Peptide text beside a SMILES is read from it. * marks the point of attachment. Trt = c1ccc(C(c2ccccc2)(c2ccccc2)*)cc1; Benzhydryl = c1ccc(C(c2ccccc2)*)cc1; Cbz = O=C(OCc1ccccc1)*; OtBu = CC(C)(C)O*

System: P388 leukemia ip, CD2F1 mice, survival T/C
Assay: NCI In Vivo Anticancer Drug Screen. Data for tumor model P388 Leukemia (intraperitoneal) in CD2F1 (CDF1) mice
Conditions: endpoint: median survival time, higher = longer survival
Procedure, shortened: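 Mice carrying the transplanted tumor received test compound or vehicle. Survival was recorded in each group, and the value is the treated-group measurement divided by that of the vehicle-treated control group.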

[1] = dose: 12.5 mg/kg/injection, schedule: Q01DX009 (ip), vehicle: distilled water + Tween-80
[2] = dose: 25.0 mg/kg/injection, schedule: Q01DX009 (ip), vehicle: distilled water + Tween-80
[3] = dose: 50.0 mg/kg/injection, schedule: Q01DX009 (ip), vehicle: distilled water + Tween-80
[4] = dose: 100.0 mg/kg/injection, schedule: Q01DX009 (ip), vehicle: distilled water + Tween-80
[5] = dose: 50.0 mg/kg/injection, schedule: Q01DX005 (ip), vehicle: Klucel (hydroxypropylcellulose) (HPC)
[6] = dose: 100.0 mg/kg/injection, schedule: Q01DX005 (ip), vehicle: Klucel (hydroxypropylcellulose) (HPC)
[7] = dose: 200.0 mg/kg/injection, schedule: Q01DX005 (ip), vehicle: Klucel (hydroxypropylcellulose) (HPC)
[8] = dose: 50.0 mg/kg/injection, schedule: Q01DX009 (ip), vehicle: saline
[9] = dose: 100.0 mg/kg/injection, schedule: Q01DX009 (ip), vehicle: saline with Tween-80
[10] = dose: 200.0 mg/kg/injection, schedule: Q01DX009 (ip), vehicle: saline with Tween-80
[11] = dose: 60.0 mg/kg/injection, schedule: Q01DX005 (ip), vehicle: saline
[12] = dose: 120.0 mg/kg/injection, schedule: Q01DX005 (ip), vehicle: saline
[13] = dose: 100.0 mg/kg/injection, schedule: Q01DX009 (ip), vehicle: saline
[14] = dose: 200.0 mg/kg/injection, schedule: Q01DX009 (ip), vehicle: saline

Measured: T/C

O=C(On1nnc2ccccc2c1=O)c1ccccc1
inactive: [1] 100 % of control | [2] 102 % of control | [3] 94 % of control | [4] 106 % of control | dose: 200.0 mg/kg/injection, schedule: Q01DX009 (ip), vehicle: distilled water + Tween-80 103 % of control

Clc1ccc(S[As](Sc2ccc(Cl)cc2)Sc2ccc(Cl)cc2)cc1
inactive: dose: 100.0 mg/kg/injection, schedule: Q04DX002 (ip), vehicle: Klucel (hydroxypropylcellulose) (HPC) 121 % of control | dose: 200.0 mg/kg/injection, schedule: Q04DX002 (ip), vehicle: Klucel (hydroxypropylcellulose) (HPC) 114 % of control | dose: 400.0 mg/kg/injection, schedule: Q04DX002 (ip), vehicle: Klucel (hydroxypropylcellulose) (HPC) 113 % of control

COc1cccc2c1C(=O)c1c(O)c3c(c(O)c1C2=O)C[C@@](O)(c1csc(-c2ccncc2)n1)C[C@@H]3OC1CC(N)C(O)C(C)O1 (stereo not given in full)
inactive: dose: 6.25 mg/kg/injection, schedule: Q04DX003 (ip), vehicle: water 118 % of control | dose: 12.5 mg/kg/injection, schedule: Q04DX003 (ip), vehicle: water 122 % of control | dose: 25.0 mg/kg/injection, schedule: Q04DX003 (ip), vehicle: water 100 % of control | dose: 50.0 mg/kg/injection, schedule: Q04DX003 (ip), vehicle: water 118 % of control | dose: 200.0 mg/kg/injection, schedule: Q04DX003 (ip), vehicle: water 92 % of control

COc1cc(CC2c3cc(OC)c(OC)cc3CCN2C)c(NC(=O)c2ccc(C(=O)Nc3cc(OC)c(OC)cc3CC3c4cc(OC)c(OC)cc4CCN3C)cc2)cc1OC (stereo not given)
inactive: dose: 12.5 mg/kg/injection, schedule: Q01DX009 (ip), vehicle: other 90 % of control | dose: 25.0 mg/kg/injection, schedule: Q01DX009 (ip), vehicle: other 92 % of control | dose: 50.0 mg/kg/injection, schedule: Q01DX009 (ip), vehicle: other 86 % of control | dose: 200.0 mg/kg/injection, schedule: Q01DX009 (ip), vehicle: other 92 % of control | dose: 400.0 mg/kg/injection, schedule: Q01DX009 (ip), vehicle: other 104 % of control

c1nc(N2CCOCC2)c2[nH]cnc2n1
inactive: [5] 99 % of control and 91 % of control | [6] 88 % of control | [7] 91 % of control

CC(C)(C)OC(=O)CNC(=O)C(Cc1ccccc1)NC(=O)C(CSC(c1ccccc1)(c1ccccc1)c1ccccc1)NC(=O)CNC(=O)C(Cc1ccccc1)NC(=O)CNC(=O)C(CSC(c1ccccc1)c1ccccc1)NC(=O)C(CSC(c1ccccc1)(c1ccccc1)c1ccccc1)NC(=O)OCc1ccccc1 (stereo not given) (Cbz-C(Trt)C(Benzhydryl)GFGC(Trt)FG-OtBu; configuration not given here)
inactive: dose: 60.0 mg/kg/injection, schedule: Q01DX005 (ip), vehicle: Klucel (hydroxypropylcellulose) (HPC) 100 % of control | dose: 120.0 mg/kg/injection, schedule: Q01DX005 (ip), vehicle: Klucel (hydroxypropylcellulose) (HPC) 98 % of control

Nc1ncnc2nc(Cl)[nH]c12
inactive: [5] 91 % of control | [6] 93 % of control | [7] 93 % of control

CCO/C(C)=N/n1c(C)nc2[nH]ncc2c1=O
inactive: dose: 60.0 mg/kg/injection, schedule: Q01DX005 (ip), vehicle: saline with Tween-80 99 % of control | dose: 120.0 mg/kg/injection, schedule: Q01DX005 (ip), vehicle: saline with Tween-80 106 % of control | dose: 240.0 mg/kg/injection, schedule: Q01DX005 (ip), vehicle: saline with Tween-80 106 % of control

O=C(Cc1cccs1)c1ccc(O)cc1
inactive: [5] 99 % of control | [6] 102 % of control | [7] 105 % of control

COC(=O)C1=C/C=C\CN(/C=C/c2ccccc2)/C=C\1C(=O)OC
inactive: dose: 100.0 mg/kg/injection, schedule: Q04DX003 (ip), vehicle: alcohol 97 % of control | dose: 200.0 mg/kg/injection, schedule: Q04DX003 (ip), vehicle: alcohol 112 % of control | dose: 400.0 mg/kg/injection, schedule: Q04DX003 (ip), vehicle: alcohol 94 % of control

COc1ccc(CCN)cc1
inactive: [8] 101 % of control and 106 % of control

CCOC(=O)c1ccccc1OP(=O)(N(C)C)N(C)C
inactive: dose: 50.0 mg/kg/injection, schedule: Q01DX009 (ip), vehicle: saline with Tween-80 99 % of control and 100 % of control and 108 % of control | [9] 99 % of control and 109 % of control and 97 % of control | [10] 99 % of control and 103 % of control and 109 % of control

CC(N)(CCS(=O)CP(=O)(O)O)C(=O)O (stereo not given)
inactive: [11] 100 % of control | [12] 94 % of control

O=C1CC(c2ccccc2)NCCCCN2C(=O)C=Cc3ccccc3C2CCN1 (stereo not given)
inactive: dose: 6.25 mg/kg/injection, schedule: Q01DX009 (ip), vehicle: Klucel (hydroxypropylcellulose) (HPC) 100 % of control | dose: 12.5 mg/kg/injection, schedule: Q01DX009 (ip), vehicle: Klucel (hydroxypropylcellulose) (HPC) 94 % of control

CCOP(=O)(O)C1CCCC(C)[N-]1.CCOP(=O)(O)C1CCCC(C)[N-]1.CCOP(=O)(O)C1CCCC(C)[N-]1.[Ti+3] (stereo not given)
inactive: dose: 50.0 mg/kg/injection, schedule: Q01DX001 (ip), vehicle: suspension in saline 94 % of control | dose: 100.0 mg/kg/injection, schedule: Q01DX001 (ip), vehicle: suspension in saline 99 % of control | dose: 200.0 mg/kg/injection, schedule: Q01DX001 (ip), vehicle: suspension in saline 88 % of control

COC(=O)C(C)CN1CCCC1 (stereo not given)
inactive: dose: 12.5 mg/kg/injection, schedule: Q04DX003 (ip), vehicle: saline 100 % of control | dose: 25.0 mg/kg/injection, schedule: Q04DX003 (ip), vehicle: saline 100 % of control | dose: 50.0 mg/kg/injection, schedule: Q04DX003 (ip), vehicle: saline 100 % of control

NC(CCC(=O)NC(CSCC(=O)Nc1ccc(O)cc1)C(=O)NCC(=O)O)C(=O)O (stereo not given)
inactive: [11] 97 % of control | [12] 97 % of control | dose: 240.0 mg/kg/injection, schedule: Q01DX005 (ip), vehicle: saline 97 % of control

N#Cc1c(N)sc(=S)c2c1CCCC2
inactive: [8] 104 % of control | [13] 95 % of control | [14] 95 % of control

COc1cc2cc[n+](C)c(C)c2cc1OC
inactive: [1] 111 % of control | [2] 111 % of control and 120 % of control | [3] 121 % of control and 124 % of control | [4] 100 % of control and 118 % of control

CCOC(=O)N1C(C)=CC=C/C1=C/C=C(C#N)C#N
inactive: dose: 100.0 mg/kg/injection, schedule: Q01DX001 (ip), vehicle: saline with Tween-80 94 % of control | dose: 200.0 mg/kg/injection, schedule: Q01DX001 (ip), vehicle: saline with Tween-80 90 % of control | dose: 400.0 mg/kg/injection, schedule: Q01DX001 (ip), vehicle: saline with Tween-80 89 % of control

O=C(NS(=O)C1C=CC2CCCC21)OC1CCCCC1c1ccccc1 (stereo not given)
inactive: [5] 109 % of control | [6] 100 % of control | [7] 97 % of control

COc1ccc(CCNC(=O)Cc2ccc(OC)c(OC)c2)cc1OC
inactive: [9] 100 % of control | [10] 106 % of control | dose: 400.0 mg/kg/injection, schedule: Q01DX009 (ip), vehicle: saline with Tween-80 123 % of control

Cc1ccc(S(=O)(=O)N/N=C/C(C)(c2ccccc2)c2ccccc2)cc1
inactive: dose: 25.0 mg/kg/injection, schedule: Q01DX009 (ip), vehicle: saline 92 % of control | [8] 99 % of control and 90 % of control | [13] 99 % of control and 94 % of control | [14] 97 % of control

Oc1ccc(/C=C/c2cc(O)cc3c2C(c2cc(O)cc(O)c2)C(c2ccc(O)c(O)c2)O3)cc1 (stereo not given)
inactive: dose: 7.5 mg/kg/injection, schedule: Q01DX001 (ip), vehicle: Klucel + Tween-80 94 % of control | dose: 15.0 mg/kg/injection, schedule: Q01DX001 (ip), vehicle: Klucel + Tween-80 94 % of control | dose: 30.0 mg/kg/injection, schedule: Q01DX001 (ip), vehicle: Klucel + Tween-80 103 % of control
